# Earlier results, collected in patent US11192891B2, “Diazaspiro ROCK inhibitors” (BRISTOL-MYERS SQUIBB COMPANY, priority 2017, dated 2021).
# Legend:
# [1] = tested on: rat models of hypertension; settings: cited from earlier work
# neointimal formation = settings: rats; cited from earlier work
# Dahl salt-sensitive rats = settings: cited from earlier work
structure (smiles),measurement,setting,value
C[C@@H](N)[C@H]1CC[C@H](C(=O)Nc2ccncc2)CC1 [Example Y-27632],effect on blood pressure in control rats,[1]; control rats,only a minor effect on blood pressure
same,effect on blood pressure in hypertensive rats,"[1]; spontaneously hypertensive, renal hypertensive and deoxycortisone acetate salt hypertensive rat models",significantly decrease blood pressure
same,neointimal formation,neointimal formation,inhibited neointimal formation
same,"ventricular hypertrophy, fibrosis and function",Dahl salt-sensitive rats,"improve ventricular hypertrophy, fibrosis and function"
